Experimental data as given in ChEMBL document CHEMBL2150982, “Synthesis and SAR of 1-hydroxy-1H-benzo[d]imidazol-2(3H)-ones as Inhibitors of D-Amino Acid Oxidase” (ACS Med Chem Lett, 2012).

system: Liver; experiment: Metabolic stability in mouse liver microsomes assessed as compound remaining at 5 uM after 1 hr by LC/MS/MS analysis in presence of UDPGA; format: ADME, Microsome; settings: not given

Question: Which Stability does the source give for `O=c1[nH]c2c(F)cc(F)cc2n1O` here?
Answer: 0.6%

Question: With `COc1cccc2c1[nH]c(=O)n2O` as the molecule, how does the Stability read?
Answer: Unstable

system: Mus musculus; experiment: Pharmaco-enhancing activity in CD1 mouse assessed as increase in D-serine level in plasma at 30 mg/kg, po measured at 30 mins relative to control; format: ADME, organism-based; design: dose 30 mg/kg, route oral; settings: in vivo, 0.5 h

Question: Which Activity does the source give for `O=c1[nH]c2c(F)cc(F)cc2n1O` here?
Answer: Active

system: not listed separately; experiment: Metabolic stability in mouse liver microsomes assessed as compound remaining at 5 uM after 1 hr by LC/MS/MS analysis; format: ADME, Microsome; settings: read-out: Stability

Question: For `O=c1[nH]c2c(F)cc(F)cc2n1O`, which remaining at 1 h, 5 µM is on record?
Answer: 100%

Question: With `COc1cccc2c1[nH]c(=O)n2O` as the molecule, how does the remaining at 1 h, 5 µM read?
Answer: 100%

target: D-amino-acid oxidase (Sus scrofa, UniProt P00371); experiment: Inhibition of pig DAAO using D-serine as substrate after 20 mins by horseradish peroxidase-coupled assay; settings: not given
Sequence (P00371 whole entry): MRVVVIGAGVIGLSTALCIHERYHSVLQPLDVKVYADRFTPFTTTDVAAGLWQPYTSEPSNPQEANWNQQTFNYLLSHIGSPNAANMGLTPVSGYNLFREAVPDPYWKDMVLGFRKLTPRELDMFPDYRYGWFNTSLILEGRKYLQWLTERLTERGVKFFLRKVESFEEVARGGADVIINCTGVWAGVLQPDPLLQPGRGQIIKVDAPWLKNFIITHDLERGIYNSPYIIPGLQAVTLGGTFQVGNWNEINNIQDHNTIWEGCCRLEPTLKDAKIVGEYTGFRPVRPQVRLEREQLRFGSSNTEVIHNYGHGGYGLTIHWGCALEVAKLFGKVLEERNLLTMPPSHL

Question: With `O=c1[nH]c2cc3c(cc2n1O)CCC3` as the molecule, how does the IC50 read?
Answer: 10 µM

Question: With `O=c1[nH]c2c(F)cc(F)cc2n1O` as the molecule, how does the IC50 read?
Answer: 0.4 µM

Question: Which IC50 does the source give for `COc1cccc2c1[nH]c(=O)n2O` here?
Answer: 0.4 µM

Question: With `Cc1cccc2[nH]c(=O)n(O)c12` as the molecule, how does the IC50 read?
Answer: > 100 µM

Question: With `CCCc1cccc2c1[nH]c(=O)n2O` as the molecule, how does the IC50 read?
Answer: 30 µM

Question: For `CCOc1cccc2c1[nH]c(=O)n2O`, which IC50 is on record?
Answer: 50 µM

Question: Which IC50 does the source give for `O=c1[nH]c2ccc(F)cc2n1O` here?
Answer: 0.6 µM

Question: For `O=c1[nH]c2ccc3c(c2n1O)CCC3`, which IC50 is on record?
Answer: > 100 µM

Question: With `CCC(C)c1cccc2c1[nH]c(=O)n2O` (stereo unspecified) as the molecule, how does the IC50 read?
Answer: 40 µM

Question: For `Cc1ccc2c(c1)[nH]c(=O)n2O`, which IC50 is on record?
Answer: 4 µM

Question: With `Cc1c(F)ccc2[nH]c(=O)n(O)c12` as the molecule, how does the IC50 read?
Answer: > 100 µM

Question: Which IC50 does the source give for `O=c1[nH]c2cc(F)ccc2n1O` here?
Answer: 1 µM

Question: Which IC50 does the source give for `Cc1cc(C)c2[nH]c(=O)n(O)c2c1` here?
Answer: 4 µM

Question: Which IC50 does the source give for `Cc1cccc2c1[nH]c(=O)n2O` here?
Answer: 0.4 µM

Question: With `O=c1[nH]c2c(Cc3ccccc3)cccc2n1O` as the molecule, how does the IC50 read?
Answer: 50 µM

Question: Which IC50 does the source give for `O=c1[nH]c2ccc(Cl)cc2n1O` here?
Answer: 2 µM

Question: For `O=c1[nH]c2ccccc2n1O`, which IC50 is on record?
Answer: 1 µM

Question: For `CC(C)c1cccc2c1[nH]c(=O)n2O`, which IC50 is on record?
Answer: 10 µM

Question: Which IC50 does the source give for `Cc1c(F)ccc2c1[nH]c(=O)n2O` here?
Answer: 0.7 µM

Question: Which IC50 does the source give for `O=c1[nH]c2c(F)cccc2n1O` here?
Answer: 0.5 µM

Question: Which IC50 does the source give for `Cc1ccc2c([nH]c(=O)n2O)c1C` here?
Answer: 1 µM

Question: For `Cc1cc2[nH]c(=O)n(O)c2cc1F`, which IC50 is on record?
Answer: 1 µM

Question: Which IC50 does the source give for `O=c1[nH]c2cc(F)c(F)cc2n1O` here?
Answer: 30 µM

Question: For `O=c1[nH]c2c3c(ccc2n1O)CCO3`, which IC50 is on record?
Answer: 0.2 µM

Question: With `CCc1cccc2c1[nH]c(=O)n2O` as the molecule, how does the IC50 read?
Answer: 20 µM

Question: With `O=c1[nH]c2cccc(F)c2n1O` as the molecule, how does the IC50 read?
Answer: 20 µM

Question: With `Cc1ccc2[nH]c(=O)n(O)c2c1` as the molecule, how does the IC50 read?
Answer: 7 µM

Question: For `O=c1[nH]c2ccc(F)c(F)c2n1O`, which IC50 is on record?
Answer: 20 µM

system: not listed separately; experiment: (§1) Metabolic stability in mouse plasma assessed as compound remaining at 5 uM after 1 hr by LC/MS/MS analysis; format: ADME, cell-free; settings: read-out: Stability

Question: Which remaining at 1 h, 5 µM does the source give for `O=c1[nH]c2c(F)cc(F)cc2n1O` here?
Answer: 100%

system: Plasma; experiment: as §1; format: ADME, cell-free; settings: 1 h, 5 µM

Question: Which Stability does the source give for `COc1cccc2c1[nH]c(=O)n2O` here?
Answer: 90%

system: Mus musculus; experiment: Pharmaco-enhancing activity in CD1 mouse assessed as increase in D-serine level in plasma at 30 mg/kg, po measured up to 2 hrs relative to control; format: ADME, organism-based; design: dose 30 mg/kg, route oral; settings: in vivo

Question: Which Activity does the source give for `O=c1[nH]c2c(F)cc(F)cc2n1O` here?
Answer: Active

system: Liver; experiment: (§2) Metabolic stability in mouse liver microsomes assessed as compound remaining at 5 uM after 1 hr by LC/MS/MS analysis in presence of NADPH; format: ADME, Microsome; settings: microsomes, 1 h, 5 µM

Question: Which Stability does the source give for `COc1cccc2c1[nH]c(=O)n2O` here?
Answer: 60%

system: not listed separately; experiment: as §2; format: ADME, Microsome; settings: liver microsomes, read-out: Stability

Question: With `O=c1[nH]c2c(F)cc(F)cc2n1O` as the molecule, how does the remaining at 1 h, 5 µM read?
Answer: 100%

target: D-amino-acid oxidase (Homo sapiens, UniProt P14920); experiment: Inhibition of human recombinant DAAO expressed in HEK293 cells using D-serine as substrate after 20 mins by horseradish peroxidase-coupled assay; settings: not given
Sequence (P14920 whole entry): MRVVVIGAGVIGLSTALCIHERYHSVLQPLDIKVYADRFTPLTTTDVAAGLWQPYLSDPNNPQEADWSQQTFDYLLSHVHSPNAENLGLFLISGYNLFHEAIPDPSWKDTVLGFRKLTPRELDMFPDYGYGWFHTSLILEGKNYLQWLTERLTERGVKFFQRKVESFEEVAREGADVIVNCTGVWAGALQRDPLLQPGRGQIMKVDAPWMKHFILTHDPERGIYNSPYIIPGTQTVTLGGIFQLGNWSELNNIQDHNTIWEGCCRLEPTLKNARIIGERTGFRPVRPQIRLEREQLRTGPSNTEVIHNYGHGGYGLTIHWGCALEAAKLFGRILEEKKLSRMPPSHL

Question: With `O=c1[nH]c2cc3c(cc2n1O)CCC3` as the molecule, how does the IC50 read?
Answer: 30 µM

Question: With `O=c1[nH]c2c(F)cc(F)cc2n1O` as the molecule, how does the IC50 read?
Answer: 0.08 µM

Question: With `COc1cccc2c1[nH]c(=O)n2O` as the molecule, how does the IC50 read?
Answer: 0.1 µM

Question: Which IC50 does the source give for `Cc1cccc2[nH]c(=O)n(O)c12` here?
Answer: 40 µM

Question: For `CCCc1cccc2c1[nH]c(=O)n2O`, which IC50 is on record?
Answer: 20 µM

Question: Which IC50 does the source give for `CCOc1cccc2c1[nH]c(=O)n2O` here?
Answer: 50 µM

Question: For `O=c1[nH]c2ncccc2n1O`, which IC50 is on record?
Answer: 1 µM

Question: For `O=c1[nH]c2cccnc2n1O`, which IC50 is on record?
Answer: 30 µM

Question: For `O=C1Cc2ccccc2N1O`, which IC50 is on record?
Answer: > 100 µM

Question: With `O=c1[nH]c2ccc(F)cc2n1O` as the molecule, how does the IC50 read?
Answer: 0.4 µM

Question: Which IC50 does the source give for `O=c1[nH]c2ccc3c(c2n1O)CCC3` here?
Answer: > 100 µM

Question: Which IC50 does the source give for `CCC(C)c1cccc2c1[nH]c(=O)n2O` (stereo unspecified) here?
Answer: > 100 µM

Question: For `Cc1ccc2c(c1)[nH]c(=O)n2O`, which IC50 is on record?
Answer: 4 µM

Question: With `Cc1c(F)ccc2[nH]c(=O)n(O)c12` as the molecule, how does the IC50 read?
Answer: > 100 µM

Question: For `O=c1[nH]c2cc(F)ccc2n1O`, which IC50 is on record?
Answer: 0.9 µM

Question: For `Cc1cc(C)c2[nH]c(=O)n(O)c2c1`, which IC50 is on record?
Answer: 20 µM

Question: With `COn1c(=O)[nH]c2ccccc21` as the molecule, how does the IC50 read?
Answer: > 100 µM

Question: Which IC50 does the source give for `Cc1cccc2c1[nH]c(=O)n2O` here?
Answer: 0.2 µM

Question: With `O=c1[nH]c2ccncc2n1O` as the molecule, how does the IC50 read?
Answer: 70 µM

Question: With `O=c1[nH]c2c(Cc3ccccc3)cccc2n1O` as the molecule, how does the IC50 read?
Answer: 10 µM

Question: Which IC50 does the source give for `O=c1[nH]c2ccc(Cl)cc2n1O` here?
Answer: 9 µM

Question: With `O=c1[nH]c2ccccc2n1O` as the molecule, how does the IC50 read?
Answer: 0.6 µM

Question: With `CC(C)c1cccc2c1[nH]c(=O)n2O` as the molecule, how does the IC50 read?
Answer: 20 µM

Question: With `Cn1c(=O)n(O)c2ccccc21` as the molecule, how does the IC50 read?
Answer: > 100 µM

Question: For `Oc1nc2ccccc2[nH]1`, which IC50 is on record?
Answer: > 100 µM

Question: For `Cc1c(F)ccc2c1[nH]c(=O)n2O`, which IC50 is on record?
Answer: 0.07 µM

Question: Which IC50 does the source give for `O=c1[nH]c2c(F)cccc2n1O` here?
Answer: 0.1 µM

Question: With `Nn1c(=O)[nH]c2ccccc21` as the molecule, how does the IC50 read?
Answer: > 100 µM

Question: With `Cc1ccc2c([nH]c(=O)n2O)c1C` as the molecule, how does the IC50 read?
Answer: 20 µM

Question: Which IC50 does the source give for `Cc1cc2[nH]c(=O)n(O)c2cc1F` here?
Answer: 2 µM

Question: With `O=c1[nH]c2cc(F)c(F)cc2n1O` as the molecule, how does the IC50 read?
Answer: 70 µM

Question: Which IC50 does the source give for `O=c1[nH]c2c3c(ccc2n1O)CCO3` here?
Answer: 0.8 µM

Question: With `CCc1cccc2c1[nH]c(=O)n2O` as the molecule, how does the IC50 read?
Answer: 80 µM

Question: Which IC50 does the source give for `O=c1[nH]c2cccc(F)c2n1O` here?
Answer: 3 µM

Question: For `O=C1Nc2ccccc2C1O` (stereo unspecified), which IC50 is on record?
Answer: > 100 µM

Question: For `Cc1ccc2[nH]c(=O)n(O)c2c1`, which IC50 is on record?
Answer: 30 µM

Question: For `O=c1[nH]c2ccc(F)c(F)c2n1O`, which IC50 is on record?
Answer: 8 µM

system: Mus musculus; experiment: Pharmaco-enhancing activity in CD1 mouse assessed as increase in D-serine level in plasma at 30 mg/kg, po relative to control; format: ADME, organism-based; design: dose 30 mg/kg, route oral; settings: in vivo

Question: With `COc1cccc2c1[nH]c(=O)n2O` as the molecule, how does the Activity read?
Answer: Not Active
